# Results taken from ChEMBL document CHEMBL3507680, “University of Dundee, Gates Library screen for HepG2 cell viability”.
# Experiment: Human HepG2 cell viability assay in 384 well format
# Type: toxicity, cell-based
# Parameters: dose 125 nL, time 70.5 hour; concentration not given beside the values
# Conditions: HepG2 cells, read-out: Inhibition
row,Structure (SMILES),cytotoxicity at 70.5 h [%]
1,OCC1CCCN1c1cc(N2CCC(OC3CCCC3)CC2)ncn1 (centres undefined),-3.18
2,CCc1nc(CCNC(=O)NC2CCSCC2)cs1,5.18
3,O=C(NCCCn1cccn1)C1CCC(=O)N(Cc2ccccc2F)C1 (centres undefined),4.27
4,COCC1CN(S(=O)(=O)c2ccc(C)cc2)Cc2c1cnn2C (centres undefined),7.58
5,CC(CS(C)(=O)=O)N(C(=O)CCc1ccc(Cl)s1)C1CC1 (centres undefined),-3.37
6,CCOCCN1CCN([C@@H]2c3ccccc3C3(CCNCC3)[C@H]2O)CC1,28.9
7,CC(Nc1ncnc2c1CCNC2)c1ccc(C(C)(C)C)cc1 (centres undefined),2.81
8,O=C1C[C@H]2CC[C@@H](CN1)N2C(=O)Cc1ccsc1,-8.54
9,CCN(C)CC(C)Cn1cnc(-c2ccccc2)c1C (centres undefined),-15.1
10,COc1ccc(CN2C[C@@H]3CN(Cc4cccnc4)CCO[C@@H]3C2)cc1,-9.13
11,Nc1nc(C2CCN(C(=O)c3cncs3)CC2)cs1,-2.63
12,O=C(CSc1ccc2c(c1)OCCO2)NS(=O)(=O)c1ccccc1,-8.6
13,Cc1ccc(N2CCCC(N(C)c3ncnc4c3CCC4)C2)nn1 (centres undefined),2.74
14,CCC(=O)N1CCCC(c2nc(-c3cccnn3)no2)C1 (centres undefined),-0.455
15,CCc1cnc(N2CC[C@H]3[C@H]2CC(=O)N3c2cccnc2)nc1,-10
16,CCCNCc1cn(Cc2ccccc2)nc1-c1cccnc1,-8.99
17,CCn1nc2c(cc1=O)CN(CC(=O)Nc1cc(C(C)C)no1)CC2,-8.8
18,CN(Cc1ccccc1F)C(=O)c1ccoc1,-4.97
19,Cc1nc(C(=O)N(C)[C@@H]2CCC[C@@H](Oc3ccccc3)[C@@H]2O)co1,6.12
20,Cn1cc(CNCC(c2ccc(Cl)cc2)n2cccn2)cn1 (centres undefined),-5.62
21,CCc1ccccc1CN1CC[C@@]2(O)CCN(S(=O)(=O)N(C)C)C[C@H]2C1,-3.87
22,CCCN(Cc1cccc(OCCO)c1)Cc1ccccc1OC,5.31
23,CCNc1ncc(C(=O)N[C@H]2CC[C@H](n3cnnc3)CC2)cn1,-1.33

row,Structure (SMILES),cytotoxicity at 70.5 h [%]
1,Cn1cc(N2CCN(c3ccc(C#N)cc3F)CC2=O)cn1,-3.17
2,O=C(c1cnccn1)N1CCCC2(CCCN2Cc2cccnc2)C1 (centres undefined),-1.76
3,Cc1ccc(CN2CC[C@@H]3CN(S(C)(=O)=O)CCO[C@@H]3C2)o1,7.49
4,CC(C)CCCNC(=O)Nc1ccc(F)c(C(N)=O)c1,2.14
5,COCC(O)CN1CCC(=O)N(Cc2ccco2)Cc2ccccc21 (centres undefined),26.6
6,CC(C)c1cc(C(=O)NCCn2nnc3ccccc32)no1,41.3
7,CCOc1ccccc1CN(CC)Cc1ccc(S(C)(=O)=O)cc1,-5.03
8,O=C1[C@H]2CN(CC3CCOCC3)C[C@H]2CN1Cc1cccc(F)c1,4.65
9,CNc1nc(CNC(=O)Nc2ccccc2C(F)(F)F)cs1,-2.38
10,COc1ccc2c(c1)OCC(CNC(=O)c1ccncc1)C2 (centres undefined),13.9
11,CCN(CC)CC1CN(Cc2nccs2)Cc2nccn2C1 (centres undefined),-9.42
12,CCCN1CCc2nc(SCc3ccccc3)[nH]c(=O)c2C1,8.44
13,Cc1cncc(C2CCCN(C(=O)c3cn(C)nc3C)C2)n1 (centres undefined),-3.29
14,c1ccc(COc2ccccc2NC2CCOCC2)nc1,-4.09
15,CC(C)NC(=O)N1CCCC(Cn2cc(-c3ccc(F)cc3)nn2)C1 (centres undefined),23.4
16,CCOc1ccc(CNC(C)c2c(C)nn(C)c2C)cc1 (centres undefined),20.4
17,CCCOC1CCCN(C(=O)c2cc(CN(CC)CC)c(CC)o2)C1 (centres undefined),17.7
18,CC(Cc1cccc(F)c1)NCc1cnc(N2CCN(C)CC2)nc1 (centres undefined),9.92
19,Cc1occc1C(=O)N1CCC2(CC1)CN(c1ccccn1)CCO2,-5.88
20,C[C@@H]1CCC[C@H](C)N1CC(=O)N1CCc2[nH]c(-c3ccccc3)nc2C1,27
21,Cc1cc(N(C)C)nc(N2CC(n3cccn3)C2)n1,5.13
22,CCOCCCNC(=O)c1cc(Br)c2c(c1)OCCO2,-8.79
23,COc1cccc(CNc2cc(CO)ccc2Cl)c1,-8.65

row,Structure (SMILES),cytotoxicity at 70.5 h [%]
1,CCCn1cc(NC(=O)c2ccc(S(C)(=O)=O)cc2)ccc1=O,-1.34
2,O=C(c1cc(=O)[nH]c(=O)[nH]1)N1CCCC(CO)(CC2CC2)C1 (centres undefined),-10.5
3,Cc1cc(S(=O)(=O)N2CCCc3cc(Br)ccc32)sc1C(=O)O,-6.91
4,Cc1ncccc1C(=O)Nc1cccc(C[S+](C)[O-])c1C (centres undefined),0.697
5,CCc1ccccc1OCCN1C[C@@H](NS(C)(=O)=O)[C@H](C(C)C)C1,-5.69
6,CC(C)(C)c1nc(CN2CCC(c3ccnn3CCO)CC2)no1,-0.084
7,CN1CCN(c2cc(CNC(=O)c3cnccn3)ccn2)CC1,-3.35
8,CN(C)C(=O)CN1CC=C(c2cnn(Cc3ccccc3)c2)CC1,-15.3
9,CC(C)CC(NC(=O)CN(C)c1cnccn1)c1cccs1 (centres undefined),-6.01
10,CN(Cc1ccsc1)c1nc(-c2ccccn2)nc2c1CCNCC2,-9.47
11,COc1ccc(C)cc1C(C)NS(=O)(=O)c1ccc2c(c1)CCC(=O)N2 (centres undefined),8.83
12,Cn1ccnc1CN1CCN(CCOc2cccc(C#N)c2)CC1,-0.0786
13,CC(C)=CCC1(C(=O)O)CCCN(c2cc(N)ncn2)C1 (centres undefined),6.26
14,O=C(CNC(=O)C1(c2ccc(F)cc2F)CCC1)Nc1cccnc1,31.2
15,CN(C)CCCNCCC(Cc1ccccc1)C1CCOC(C)(C)C1 (centres undefined),1.12
16,COc1cc(N2CCC3(CC2)CNC(=O)CO3)ncn1,-8.43
17,O=C1COC2(CCN(Cc3ccncc3)CC2)CN1c1ccccc1,2.43
18,Cc1ccc2c(c1)c(CNC(=O)C1CCCN(CC(N)=O)C1)nn2C (centres undefined),-10.2
19,CC(=O)Nc1nc(C2CCN(C(C)C)CC2)cs1,-1.18
20,CCOCCCC(=O)NS(=O)(=O)c1ccc(C)s1,-0.611
21,CCNc1nc2c(s1)C(=O)CN(C(=O)NCCc1ccccc1)C2,-17.7
22,CC(=O)N1CCC(c2cncc(Oc3ccccc3)n2)CC1,-2.89
23,CN(Cc1noc2c1CCCC2)C(=O)Nc1cccc(S(N)(=O)=O)c1,17.1

row,Structure (SMILES),cytotoxicity at 70.5 h [%]
1,COc1ccc(CN2CC[C@H](c3nnc(-c4ccco4)o3)C2)cc1,23
2,Cc1nn(C)c(C)c1C1CCCN1C(=O)c1ccc(CN(C)C)cc1 (centres undefined),15.1
3,O=C(N1CCCC1)N1CCc2onc(COc3cccnc3)c2C1,-3.27
4,O=C1N(c2ccccc2)Cc2nc(=O)[nH]n21,-27.8
5,Cc1nc2c(c(NCCCN3CCOCC3)n1)CCN(C)C2,15.4
6,CCc1n[nH]c(C2CN(C(=O)Cn3ccccc3=O)CCO2)n1 (centres undefined),21.1
7,CN1C(=O)CC[C@@H]2[C@H]1CCN2S(=O)(=O)Cc1ccccc1,47.7
8,CN(C[C@H]1CN2CC[C@H]1C[C@@H]2CNC(=O)c1ccco1)c1ccccc1,-0.576
9,CS(=O)(=O)CCC(=O)Nc1cnn(-c2ccccc2Cl)c1,2.48
10,Cc1ccc(NC(=O)Cc2c(C)nc3c(c2C)c(=O)[nH]n3C)cc1F,-4.3
11,O=C(Cn1cc(-c2ccccc2)ncc1=O)NC1CCCCC1,5.64
12,CCCN(CCC)C(=O)CN1CCCC1C(=O)N(C)C (centres undefined),-5.85
13,Cc1cc(C(=O)NCC(=O)N2CCOCC2)nn1C(C)(C)C,-17.2
14,CCS(=O)(=O)N1CCC(c2nnc(C3CC3)o2)CC1,3.63
15,Cc1nc(COC(=O)c2cccc3c2OCCO3)cs1,-11.2
16,COc1cccc(CCC2CCCN(C(=O)c3cnccn3)C2)c1 (centres undefined),-7.12
17,O=C(c1cccc(S(=O)(=O)NCCc2ccccn2)c1)N1CCOCC1,-2.52
18,CC(N)C(=O)N1CCC(Oc2cccc(C(F)(F)F)c2)CC1 (centres undefined),11.5
19,CC(C)(C)CN1CC(COc2ccccc2)Oc2ccncc2S1(=O)=O (centres undefined),10.8
20,CN(C)S(=O)(=O)NCc1cccnc1Oc1ccc(F)c(F)c1,-4.24
21,CN1C[C@@H]2COC[C@]2(C(=O)NCCc2cccs2)C1,-5.55
22,Cc1ccc(CNC(=O)c2cc(Cn3ccnc3C(C)C)[nH]n2)o1,20.2
23,Cc1cc(NCCCOC(C)C)c2nncn2n1,7.73

row,Structure (SMILES),cytotoxicity at 70.5 h [%]
1,CCN(C(c1cccnc1)c1ccc(F)c(F)c1)S(C)(=O)=O (centres undefined),-4.7
2,Cc1ccc(CN2CCc3c(COC(C)C)nn(C)c3C2)s1,-9.08
3,CNS(=O)(=O)CC1CCCN1C(=O)c1ccc2cc[nH]c2c1 (centres undefined),-7.71
4,COCCN1C(=O)[C@H]2CC[C@@H]1CN(C(=O)Cc1c(F)cccc1Cl)C2,-8.61
5,CCc1nc(C)c(C(=O)NCCNc2cnccn2)s1,3.09
6,COc1cccc(NC(=O)CCCc2nc(C(C)C)no2)c1,5.69
7,COc1ccc(/C=C/CN2CCC3(CC2)CN(C)C(=O)O3)cc1,-6.12
8,CCN(CC)C(=O)CN1CCC2(C=Cc3cc(Cl)c(C)cc3O2)CC1,7.43
9,CCCNC(=O)CNc1cc(C(=O)NCC(F)(F)F)cc(F)c1C,-6.37
10,Nc1nc2c(c(NCc3cnc4c(c3)CCC4)n1)CCNC2,-10.4
11,Cc1cccc(CN(Cc2ccccn2)S(=O)(=O)N(C)C(C)C)c1,-14
12,COCC1CN(C(=O)c2cccn2C)Cc2cnn(C)c21 (centres undefined),-0.85
13,CC(C)N1CCOC(CC(=O)N2CCCN(Cc3cccs3)CC2)C1 (centres undefined),-11.6
14,Cc1cnn(CCNC(C)c2nnc(-c3ccccc3)o2)c1 (centres undefined),-7.05
15,CCOC(=O)N1CCCC2(CCCNC2)C1 (centres undefined),-1.34
16,CC(C)c1ccc(-n2ncc(C(=O)N(C)C3CCN(C)CC3)c2N)cc1,-2.55
17,CC(=O)N1CCCN(C(=O)NCCCN(C)S(C)(=O)=O)CC1,-8.8
18,Cc1oc(-c2ccsc2)nc1CN1CCCC(c2ccnn2C)C1 (centres undefined),-23.6
19,O=C(CC(F)(F)F)N1CCCC(c2nccn2Cc2ccncc2)C1 (centres undefined),-6.22
20,CN1CC2(CCN(c3ncnc4c3CCNC4)CC2)OC1=O,-9.3
21,CCc1nonc1NC(=O)C(C)Oc1ccccc1F (centres undefined),-10.4
22,Cc1ccoc1C(=O)NCC(Cc1ccc(F)cc1)C(N)=O (centres undefined),-3.51
